This passage reports IC50 results from paper PMC9185314 (RSC Advances, 2022).

In this assay the target is Jack bean urease (Canavalia ensiformis, UniProt P07374). The experiment in a line: urease inhibition assay, indophenol. The assay is classed as biochemical.

One may read the IC50 as the concentration that gives 50% inhibition.

Chain of Jack bean urease (P07374 whole entry, looked up): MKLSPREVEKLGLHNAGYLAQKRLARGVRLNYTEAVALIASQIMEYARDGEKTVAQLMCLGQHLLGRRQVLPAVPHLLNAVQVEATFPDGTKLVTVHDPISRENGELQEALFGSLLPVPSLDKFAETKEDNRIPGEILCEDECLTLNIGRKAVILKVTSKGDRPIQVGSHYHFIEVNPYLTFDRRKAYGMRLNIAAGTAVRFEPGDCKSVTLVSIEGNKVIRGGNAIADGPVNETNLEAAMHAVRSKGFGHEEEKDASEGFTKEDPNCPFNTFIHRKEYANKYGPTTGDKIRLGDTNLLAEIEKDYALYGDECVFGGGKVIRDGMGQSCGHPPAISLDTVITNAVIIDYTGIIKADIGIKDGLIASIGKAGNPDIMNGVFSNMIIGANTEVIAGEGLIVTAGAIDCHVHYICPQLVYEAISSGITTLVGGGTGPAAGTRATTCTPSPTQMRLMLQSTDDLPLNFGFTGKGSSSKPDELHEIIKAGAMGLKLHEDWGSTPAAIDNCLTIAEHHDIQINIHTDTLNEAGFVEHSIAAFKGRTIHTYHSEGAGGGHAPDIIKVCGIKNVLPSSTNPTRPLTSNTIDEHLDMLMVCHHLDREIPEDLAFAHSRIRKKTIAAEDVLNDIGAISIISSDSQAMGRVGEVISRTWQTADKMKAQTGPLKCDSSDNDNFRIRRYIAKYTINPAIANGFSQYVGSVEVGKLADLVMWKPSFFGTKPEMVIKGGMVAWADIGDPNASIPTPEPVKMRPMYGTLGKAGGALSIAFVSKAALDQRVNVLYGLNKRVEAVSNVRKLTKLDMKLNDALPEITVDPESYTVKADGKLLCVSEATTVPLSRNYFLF

Molecule `CC(=O)c1ccc(NC(=S)NC(=O)c2ccc(Cl)cc2Cl)cc1` [compound 4, N-((4-Acetylphenyl)carbamothioyl)-2,4-dichlorobenzamide] had an IC50 of 38.9 ± 1.7 nM.
